Data on 19 molecules can be found in patent publication EP1137632B1, “THIOUREA INHIBITORS OF HERPES VIRUSES” (Wyeth, priority 1998, dated 2000).

Converted amounts (≈) assume the structure as drawn. Where two headings read alike, the source gives them in different places. A value given as a limit tells only on which side of the number the result lay.

Experiment [1] deals with HCMV recombinant mutant virus. Description: microbe, parasite or virus in culture. The class given is cell-based, human cytomegalovirus. To be noted: Human betaherpesvirus 5, read-out: IC50 (ug/ml) HCMV. From the text:
Microtiter plate assay. Ninety-six well plate cultures of human foreskin fibroblasts are infected in the presence of inhibitor compound with a HCMV recombinant mutant virus whose genome contains the prokaryotic beta-glucuronidase gene (Jefferson, R. A., S. M. Burgess, and D. Hirsh. 1986. Beta-glucuronidase from Escherichia coli as a gene fusion marker. Proc. Natl. Acad. Sci. USA 83:8447-8451) whose expression is controlled by a viral promoter. An example of such a virus is RV145 (Jones, T. R., V. P. Muzithras, and Y. Gluzman. 1991. Replacement mutagenesis of the human cytomegalovirus genome: US10 and US11 gene products are nonessential. J. Virol. 65:5860-5872). Since it is under the control of a viral promoter, beta-glucuronidase expression is an indirect indicator of growth and replication of HCMV in this assay. At 96 hours post-infection, the infected cell lysates are prepared (using 50mM sodium phosphate [pH7.0] containing 0.1 % Triton X-100 and 0.1% sarkosyl) and assayed for beta-glucuronidase activity using a substrate for the enzyme which when cleaved yields either a product which can be measured colorimetrically in a spectrophotometer or fluorescently in a microfluorimeter. Examples of such substrates are p-nitrophenyl-beta-D-glucuronide and methylumbelliferylglucuronide, respectively. The presence of an antiviral compound is indicated by the reduced expression of the HCMV genome resident beta-glucuronidase gene, compared to the absence of inhibitor. […] Data from this assay generated using varying amounts of inhibitor compound is also used to estimate the IC50 of an inhibitor compound.

Another experiment deals with HSV-1. Description: HSV antiviral (ELISA) assay in Vero cells. The class given is cell-based, herpes simplex virus type 1. To be noted: read-out: IC50 (ug/ml) HSV. The method, then: HSV antiviral (ELISA) assay
Vero cells (ATCC #CCL-81) are plated on 96-well tissue culture plates at 3.5x10^4 cells per 100µl tissue culture DMEM (Dulbecco's modified Eagle media) supplemented with 2% fetal bovine serum (FBS) in each well. After overnight incubation @ 37°C (in 5% CO2) and 30 minutes prior to infection with HSV-1 (multiplicity of infection equal to 0.006), cells are either untreated, or treated with test compound (multiple concentrations) or reference standard drug control. After approximately 24 hours post-infection incubation @ 37°C (in 5% CO2), cells are fixed for ELISA assay. The primary antibody is murine anti-HSV glycoprotein D monoclonal primary antibody and the secondary antibody is goat anti-mouse IgG linked to β-galactosidase. Thus the extent of viral replication is determined by assessing β-galactosidase activity by quantifying the generation of the 4-methyl umbelliferone fluorescent cleavage product after addition of the methyl umbelliferyl-β-D-galactoside (Sigma #M1633) substrate on a microfluorimeter (365nm for excitation and 450nm for emission). Antiviral activity (IC50) of the test compound is determined by comparing the flourescence obtained in absence of compound to that obtained in the presence of compound.
For orientation: In an ELISA, binding on a coated surface is turned into a signal by an enzyme label.

The subject of the next experiment is VZV strain Ellen. Description: VZV antiviral (ELISA) assay in human foreskin fibroblast cells. To be noted: for inhibition at 10 µg/mL: Human alphaherpesvirus 3, Fibroblast, read-out: % inhibition 10 ug/ml VZV; for IC50: read-out: IC50 (ug/ml) VZV. It counts as cell-based, varicella-zoster virus. The protocol:
VZV antiviral (ELISA) assay
For the generation of stock VZV to be used in the assay, VZV strain Ellen (ATCC #VR-1367) is used to infect human foreskin fibroblast (HFF) cells at low multiplicity (less than 0.1) and incubated overnight at 37°C in 5% CO2. After the overnight incubation, the mixture of uninfected and VZV-infected HFF infected cells are then harvested and added to each well of 96-well plates (3.5x10^4 cells in 100 µl DMEM supplemented with 2% FBS) which contain test compound or the reference standard drug control (in 100µl DMEM supplemented with 2% FBS per well). These cells are incubated for three days at 37°C in 5% CO2, then fixed for ELISA assay. The primary antibody is murine anti-VZV glycoprotein II monoclonal antibody (Applied Biosystems, Inc. #13-145-100) and the secondary antibody is goat anti-mouse IgG linked to β-galactosidase. Thus the extent of viral replication is determined by assessing β-galactosidase activity by quantifying the generation of the 4-methyl umbelliferone fluorescent cleavage product after addition of the methyl umbelliferyl-β-D-galactoside (Sigma #M1633) substrate on a microfluorimeter (365nm for excitation and 450nm for emission). Antiviral activity (IC50) of the test compound is determined by comparing the flourescence obtained in absence of compound to that obtained in the presence of compound.

[2] abbreviates: Human alphaherpesvirus 1, HSV-1 in Vero cells.
The mark [3] stands for this setting: Human alphaherpesvirus 3, VZV strain Ellen in HFF cells.

As for `COc1cc(C)c(Cl)cc1NC(=S)Nc1ccc(NC(=O)c2ccccc2F)c(C)c1` [Example 394, N-{4-[3-(5-Chloro-2-methoxy-4-methyl-phenyl)-thioureido]-2-methyl-phenyl}-2-fluoro-benzamide], the IC50 in experiment [1] was above 10 µg/mL; with HSV-1 (setting [2]) it was 0.2 µg/mL (≈ 0.437 µM); in the experiment on VZV strain Ellen (setting [3]), above 10 µg/mL. Further, the inhibition at 10 µg/mL in the experiment on VZV strain Ellen was 36%.
`O=C(Nc1ccc(NC(=S)Nc2ccc(NC(=O)c3ccccc3F)cc2)cc1Cl)c1ccccc1` [Example 401, N-{4-[({[4-(Benzoylamino)-3-chloro-phenyl]-amino}-thioxomethyl)-amino]-phenyl}-2-fluoro-benzamide]: the IC50 was 2.5 µg/mL (≈ 4.82 µM) in experiment [1], above 10 µg/mL in the experiment with HSV-1 (setting [2]) and above 15 µg/mL with VZV strain Ellen (setting [3]). Besides, the inhibition at 10 µg/mL with VZV strain Ellen is 70%.
As for `CC(NC(=S)Nc1ccc(NC(=O)c2ccccc2F)c(C(F)(F)F)c1)c1cc2ccccc2o1` (stereo not shown) [Example 1037, N-{4-[3-(1-Benzofuran-2-yl-ethyl)-thioureido]-2-trifluoromethyl-phenyl}-2-fluoro-benzamide], the IC50 in experiment [1] is 2 µg/mL (≈ 3.99 µM); with HSV-1 (setting [2]) it was 3.6 µg/mL (≈ 7.18 µM); in the experiment with VZV strain Ellen (setting [3]), 0.027 µg/mL (≈ 0.0538 µM).
In the case of `COc1cc(OC)c(NC(=S)Nc2ccc(NC(=O)c3ccccc3F)cc2C(F)(F)F)cc1Cl` [Example 359, N-{4-[3-(5-Chloro-2,4-dimethoxy-phenyl)-thioureido]-3-trifluoromethyl-phenyl}-2-fluoro-benzamide], the IC50 in experiment [1] is above 10 µg/mL; in the experiment with HSV-1 (setting [2]), 0.6 µg/mL (≈ 1.14 µM); with VZV strain Ellen (setting [3]), above 10 µg/mL. In addition, the inhibition at 10 µg/mL in the experiment with VZV strain Ellen stood at 59%.
Take `COc1cc(NC(=S)NC(C)c2ccc(C#N)cc2)c(OC)cc1NC(=O)c1ccccc1F` (stereo not shown) [Example 1024, N-(4-{3-[1-(4-Cyano-phenyl)-ethyl]-thioureido}-2,5-dimethoxy-phenyl)-2-fluoro-benzamide]: the IC50 (in experiment [1]; in the experiment with HSV-1 (setting [2]); in the experiment on VZV strain Ellen (setting [3])) was above 10 µg/mL throughout.
Turning to `CC(NC(=S)Nc1ccc(NC(=O)c2cc3ccccc3cn2)c(C(F)(F)F)c1)c1ccc(F)cc1` (stereo not shown) [Example 1068, Isoquinoline-3-carboxylic acid (4-{3-[1-(4-fluoro-phenyl)-ethyl]-thioureido}-2-trifluoromethyl-phenyl)-amide], the IC50 in experiment [1] is above 10 µg/mL; in the experiment with HSV-1 (setting [2]), above 10 µg/mL; in the experiment on VZV strain Ellen (setting [3]) it was 0.04 µg/mL (≈ 0.078 µM).
Take `CC(NC(=S)Nc1ccc(NC(=O)c2ccccc2F)c(OCc2ccccc2)c1)c1ccc(F)cc1` (stereo not shown) [Example 1051, N-(2-Benzyloxy-4-{3-[1-(4-fluoro-phenyl)-ethyl]-thioureido}-phenyl)-2-fluoro-benzamide]: the IC50 in experiment [1] was above 10 µg/mL; in the experiment with HSV-1 (setting [2]), above 10 µg/mL; in the experiment with VZV strain Ellen (setting [3]) it was 0.7 µg/mL (≈ 1.35 µM).
Consider `Cc1cc(NC(=S)NC(C)c2ccc(C#N)cc2)ccc1NC(=O)c1ccccc1F` (stereo not shown) [Example 1047, N-(4-{3-[1-(4-Cyano-phenyl)-ethyl]-thioureido}-2-methyl-phenyl)-2-fluoro-benzamide], for which the IC50 in experiment [1] was 6.1 µg/mL (≈ 14.1 µM); with HSV-1 (Human alphaherpesvirus 1, Vero), above 10 µg/mL; in the experiment with VZV strain Ellen (Human alphaherpesvirus 3, HFF), 0.63 µg/mL (≈ 1.46 µM).
Consider `CC(NC(=S)Nc1ccc(NC(=O)c2ccccc2F)c(C#N)c1)c1cc2ccccc2o1` (stereo not shown) [Example 1043, N-{4-[3-(1-Benzofuran-2-yl-ethyl)-thioureido]-2-cyano-phenyl)-2-fluoro-benzamide], for which the IC50 was above 10 µg/mL in experiment [1], above 10 µg/mL in the experiment with HSV-1 (setting [2]) and 0.099 µg/mL (≈ 0.216 µM) in the experiment on VZV strain Ellen (setting [3]).
As to `Cc1cc(NC(=O)c2cc(F)c(F)cc2F)ccc1NC(=S)NC(C)c1ccc(F)cc1` (stereo not shown) [Example 1029, 2,4,5-Trifluoro-N-(4-{3-[1-(4-fluoro-phenyl)-ethyl]-thioureido}-3-methyl-phenyl)-benzamide], the IC50 is above 10 µg/mL in experiment [1], above 10 µg/mL in the experiment on HSV-1 (setting [2]) and 0.53 µg/mL (≈ 1.15 µM) in the experiment on VZV strain Ellen (setting [3]).
As for `Cc1cc(NC(=S)NC(C)c2ccc(F)cc2)ccc1NC(=O)c1cc2ccccc2cn1` (stereo not shown) [Example 1074, Isoquinoline-3-carboxylic acid (4-{3-[1-(4-fluoro-phenyl)-ethyl]-thioureido}-2-methyl-phenyl)-amide], the IC50 in experiment [1] was 4 µg/mL (≈ 8.72 µM); with HSV-1 (setting [2]), 5.8 µg/mL (≈ 12.6 µM); with VZV strain Ellen (setting [3]) it was 0.07 µg/mL (≈ 0.153 µM).
As for `COc1cc(OC)c(NC(=S)Nc2ccc(NC(=O)c3ccccc3F)cc2OC)cc1Cl` [Example 389, N-{4-[3-(5-Chloro-2,4-dimethoxy-phenyl)-thioureido]-3-methoxy-phenyl}-2-fluoro-benzamide], the IC50 in experiment [1] was 1.5 µg/mL (≈ 3.06 µM); with HSV-1 (setting [2]) it was 0.04 µg/mL (≈ 0.0816 µM); in the experiment with VZV strain Ellen (setting [3]) it was above 10 µg/mL. The inhibition at 10 µg/mL with VZV strain Ellen was 9%.
Turning to `CC(NC(=S)Nc1ccc(NC(=O)c2ccccc2F)c(C(F)(F)F)c1)c1ccc(Br)cc1` (stereo not shown) [Example 1035, N-(4-{3-[1-(4-Bromo-phenyl)-ethyl)-thioureido}-2-trifluoromethyl-phenyl)-2-fluoro-benzamide], the IC50 in experiment [1] turned out to be 2.3 µg/mL (≈ 4.26 µM); with HSV-1 (setting [2]), 3.1 µg/mL (≈ 5.74 µM); in the experiment with VZV strain Ellen (setting [3]) it was 0.032 µg/mL (≈ 0.0592 µM).
Turning to `CC(NC(=S)Nc1ccc(NC(=O)c2ccccc2F)c(C#N)c1)c1ccc(C#N)cc1` (stereo not shown) [Example 1042, N-(2-Cyano-4-{3-[1-(4-cyano-phenyl)-ethyl]-thioureido}-phenyl)-2-fluoro-benzamide], the results for the IC50 (in experiment [1]; in the experiment with HSV-1 (setting [2]); with VZV strain Ellen (setting [3])) were 2.1 µg/mL (≈ 4.73 µM), 4.2 µg/mL (≈ 9.47 µM) and 0.54 µg/mL (≈ 1.22 µM), respectively.
For `COc1cc(OC)c(NC(=S)Nc2ccc(NC(=O)c3ccccc3F)c3ccccc23)cc1Cl` [Example 325, N-{4-[3-(5-Chloro-2,4-dimethoxy-phenyl)-thioureido]-naphthalen-1-yl}-2-fluoro-benzamide], the IC50 in experiment [1] was above 10 µg/mL; with HSV-1 (setting [2]), 1 µg/mL (≈ 1.96 µM); in the experiment on VZV strain Ellen (setting [3]), above 10 µg/mL. Besides, the inhibition at 10 µg/mL in the experiment with VZV strain Ellen turned out to be 33%.
Regarding `COc1cc(OC)c(NC(=S)Nc2ccc(NC(=O)c3ccccc3F)cc2C)cc1Cl` [Example 295, N-{4-[3-(5-Chloro-2,4-dimethoxy-phenyl)-thioureido]-3-methyl-phenyl}-2-fluoro-benzamide], the IC50 in experiment [1] is above 10 µg/mL; in the experiment on HSV-1 (setting [2]) it was 0.15 µg/mL (≈ 0.316 µM); in the experiment on VZV strain Ellen (setting [3]), above 10 µg/mL. Also, in the experiment with VZV strain Ellen, the inhibition at 10 µg/mL was found to be 20%.
Regarding `CC(NC(=S)Nc1ccc(NC(=O)c2ccccc2F)c(OCC#N)c1)c1ccc(C#N)cc1` (stereo not shown) [Example 1063, N-[4-{3-[1-(4-Cyano-phenyl)-ethyl]-thioureido}-2-(2-nitrilo-ethoxy)-phenyl]-2-fluoro-benzamide], the IC50 in experiment [1] was 3.6 µg/mL (≈ 7.6 µM); in the experiment on HSV-1 (setting [2]), above 10 µg/mL; in the experiment with VZV strain Ellen (setting [3]) it was 0.64 µg/mL (≈ 1.35 µM).
On to `CC(=O)Nc1ccc(NC(=S)Nc2ccc(NC(=O)c3ccccc3)c(Cl)c2)cc1` [Example 400, N-{4-[3-(4-Acetylamino-phenyl)-thioureido]-2-chloro-phenyl}-benzamide], for which the IC50 (in experiment [1]; in the experiment with HSV-1 (setting [2]); in the experiment on VZV strain Ellen (setting [3])) was above 10 µg/mL throughout. Moreover, the inhibition at 10 µg/mL with VZV strain Ellen stood at 15%.
Take `CC(NC(=S)Nc1ccc(NC(=O)c2nccc3ccccc23)c(C(F)(F)F)c1)c1ccc(F)cc1` (stereo not shown) [Example 1066, Isoquinoline-1-carboxylic acid (4-{3-[1-(4-fluoro-phenyl)-ethyl]-thioureido}-2-trifluoromethyl-phenyl)-amide]: the IC50 in experiment [1] is 1.8 µg/mL (≈ 3.51 µM); in the experiment on HSV-1 (setting [2]), 1.9 µg/mL (≈ 3.71 µM); in the experiment with VZV strain Ellen (setting [3]), 0.02 µg/mL (≈ 0.039 µM).
